Source: paper PMC10583352, “B7H3 targeting gold nanocage pH-sensitive conjugates for precise and synergistic chemo-photothermal therapy against NSCLC” (Journal of Nanobiotechnology, 2023)

How the values were obtained:
NCI-H1299 cells [1] = test: MTT cytotoxicity with/without NIR irradiation; format: cell-based, human; details: without irradiation, 24 h
Experimental: The cytotoxicity of B7H3/Dox@GNCs on tumor cells was assessed using the MTT assay. Briefly, NCI-H1299 cells (4 × 10^3 cells/well) were seeded in a 96-well plate and incubated for 12 h until the cells were completely attached. […] The cells were cultured for another 12 h and cell viability was determined using the MTT method.

NCI-H1299 cells [2] = test: Cell cycle analysis (PI/RNase, flow cytometry); format: cell-based, human; details: without irradiation, 1 μg/mL Dox equivalent, 24 h
Experimental: Next, Dox, GNCs, B7H3@GNCs, Dox@GNCs, or B7H3/Dox@GNCs (1 μg/mL Dox equivalent) were added to the culture medium. […] After the cells were fixed, RNase A solution was added to degrade RNA, and cells were stained with PI. Finally, the samples were subjected to cell cycle analysis using flow cytometry. ROS was detected using the method described above, except that the cells were stained with DCFH-DA and analyzed using flow cytometry.

[3] = Pharmacokinetics after single i.v. administration in rats (plasma Dox, LC-MS/MS); format: in vivo, Sprague–Dawley rats; details: 3 mg/kg Dox equivalent, Mean ± SD, n = 6
Experimental: The pharmacokinetic properties of B7H3/Dox@GNCs were studied using 18 male Sprague–Dawley rats, weighing 200 ± 20 g. The rats were randomly divided into three groups (n = 6 per group) and administered Dox•HCl, Dox@GNCs, and B7H3/Dox@GNCs (3 mg/kg Dox equivalent dose) intravenously (i.v.) through the tail vein. Next, 300 μL blood samples were collected into heparinized tubes from the venous plexus at 0, 0.05, 0.13, 0.25, 0.5, 1, 1.5, 2, 4, 6, 8, 12, and 24 h. After centrifugation at 3000 × g for 15 min, the plasma samples were obtained and stored at – 80 ℃ until analysis.
(§1) The collected tissues were diced into small pieces and homogenized with three volumes of saline. Subsequently, 100 μL plasma and tissue homogenate samples were spiked with 10 μL epirubicin as the internal standard and vortex-mixed with 300 μL methanol for 5 min. After 15 min of centrifugation at 15,000 × g and 4 °C to precipitate proteins, 5 μL supernatant aliquots were analyzed using HPLC–MS/MS.

[4] = Biodistribution of Dox in tumor-bearing mice; format: in vivo, BALB/c athymic nude male mice; details: i.v. 3 mg/kg Dox
Experimental: as §1, with “A xenograft model was established using BALB/c athymic nude male mice (weight: 20 ± 2 g) and NCI-H1299 cells. […] The collected tissues were rinsed in ice-cold physiological saline to remove the superficial blood and other debris and stored at − 80 ℃ until analysis. The” for “The”

[5] = tested on: NCI-H1299 cell-derived xenograft; test: Antitumor efficacy in NCI-H1299 cell-derived xenograft; format: in vivo, BALB/c nude mice; details: 14 day treatment
Experimental: The heterotopic xenograft mouse model of NSCLC was established by subcutaneous injection of 1.0 × 10^7 NCI-H1299 cells into the right dorsal side of BALB/c nude mice. The tumor size and body weight of the mice were measured and recorded every 2 days. The tumor volume (mm^3) was calculated using the formula: V = W^2 × L/2, where the width (W) and length (L) were measured using an electronic caliper. When the tumor volume reached 80–100 mm^3, mice were administered i.v. Dox at a dose of 3 mg/kg in the indicated formulation at 3 day intervals via the tail vein until euthanized.

NCI-H1299 lung tumor = test: Histological examination (H&E, CD34 IHC) of tissues of xenograft-bearing mice; format: in vivo; details: xenograft-bearing mice after i.v. administration

With `COc1cccc2c1C(=O)c1c(O)c3c(c(O)c1C2=O)C[C@@](O)(C(=O)CO)C[C@@H]3O[C@H]1C[C@H](N)[C@H](O)[C@H](C)O1.Cl` [Dox, doxorubicin hydrochloride] the IC50 (NCI-H1299 cells [1]) was 2.50 µg/mL, the “effect on cell cycle” value (NCI-H1299 cells [2]) was “stagnated in the S phase and G2/M phase” and the CL [3] was 2.17 ± 0 mL/min/kg. The “MRT0-∞” value [3] was 9.43 ± 0.46 h, the T1/2 [3] was 8.67 ± 0.34 h and the Vd [3] was 1.64 ± 0.41 L/kg. The “Dox concentrations in heart, liver, lungs, spleen and kidneys versus Dox@GNCs and B7H3/Dox@GNCs groups” value [4] was “significantly higher”, the “body weight of mice” value [5] was “drastic decrease in body weight” and the tumor growth ([5]; xenograft mice, i.v.) was “suppressed tumor growth”. The “heart tissue histology (H&E)” value (NCI-H1299 lung tumor) was “Dox-induced damage to the heart was observed”.
